Columns and labels:
[1] = test system: A404 cells; test: RA-induced SMC differentiation of A404 cells, immunocytochemical staining; assay type: cell-based, mouse
Experimental: The culture methods for SMC differentiation are outlined in FIG. 1. Cells were trypsinized and plated in a 10 cm dish in α-MEM containing 7.5% FBS and 1 μmol/L all trans-retinoic acid (Sigma, R2625) at a density of 10,000 cells/cm^2 (day 0). The culture medium was replaced once on day 2. On day 3, RA was removed from the culture medium. On day 4, cells were trypsinized and plated in two 10 cm dishes in the medium containing […] puromycin (Clontech). Except otherwise noted, samples for various analyses were prepared from cells treated with puromycin for two days. During puromycin selection, the medium was replaced every day.
Western blot analysis was performed as previously described Regan et al., J. Clin Invest. 2000; 106:1139-47. SM-MHC expression was assessed using a rabbit anti-chicken SM-MHC antibody (1:200,000, a gift from Dr. U. Groschel-Stewart). The specificity of this antibody for mouse MHC isoforms has been thoroughly characterized. The antibody was not reactive with nonmuscle MHCs in Western blotting. Immnunocytochemical staining was performed using Vectastain ABC-AP kit (Vector Laboratories). Antibodies and dilutions used were 1:1000 anti-SM α-actin antibody (Sigma), 1:500 anti-SM-MHC antibody, and 1:1000 anti-neuron-specific β-tubulin antibody (TUJ1, Berkeley Antibody Company).

[2] = test system: P19 cells; test: RA-induced SMC differentiation of parental P19 cells; assay type: cell-based, mouse; conditions: within 4 days
Experimental: P19 cells were obtained from American Type Culture Collection (CRL-1825). Cells were maintained in α-minimum essential medium (α-MEM, Sigma, M0644) supplemented with 7.5% fetal bovine serum (FBS), 200 μg/ml L-glutamine and penicillin/streptomycin (Lifetechnologies). For transfection and differentiation induction experiments, P19 cell cultures less than 6 passages from the initial culture obtained from ATCC were used. […] Cells were trypsinized and plated in a 10 cm dish in α-MEM containing 7.5% FBS and 1 μmol/L all trans-retinoic acid (Sigma, R2625) at a density of 10,000 cells/cm^2 (day 0). The culture medium was replaced once on day 2. On day 3, RA was removed from the culture medium. On day 4, cells were trypsinized and plated in two 10 cm dishes in the medium containing 0.5 ng/ml puromycin (Clontech). Except otherwise noted, samples for various analyses were prepared from cells treated with puromycin for two days. During puromycin selection, the medium was replaced every day.

[3] = RA-treated A404 cells, after 2-days of puromycin treatment

| Structure (SMILES) | α-actin negative neuron-like cells, fraction of total cell population ([1]; by 4 days after RA treatment, no puromycin) | fraction of total A404 cell population stained positively for SM α-actin ([1]; by 4 days following RA treatment, no puromycin) [%] | cells estimated to differentiate into SMCs [2] | cells positive for TUJ1 [1, 3] [%] | fraction of neuron-like cells [1, 3] | number of neuronal cells ([1]; RA-treated A404 cells, five-days of puromycin treatment) | cells stained positively for both SM α-actin and SM-MHC ([1]; RA-treated A404 cells, following 2 to 5-days treatment with puromycin) [%] |
| --- | --- | --- | --- | --- | --- | --- | --- |
| CC1=C(/C=C/C(C)=C/C=C/C(C)=C/C(=O)O)C(C)(C)CCC1 [RA, all trans-retinoic acid] | 10-20% | > 80 | 1-5% | – | – | – | – |
| COc1ccc(C[C@H](N)C(=O)N[C@H]2[C@@H](O)[C@H](n3cnc4c(N(C)C)ncnc43)O[C@@H]2CO)cc1 [puromycin] | – | – | – | < 0.1 | 5-10% | less than 5% | > 90 |

— patent publication US20040234972A1, “Method for identifying and purifying smooth muscle progenitor cells” (priority 2001, published 2004)
